Data taken from ChEMBL document CHEMBL1147393, “Two new modified trichothecenes from Fusarium sporotrichioides” (J Nat Prod, 1993).

Assay: Cytotoxicity against syrian golden hamsters BHK21 cells
Format: cell-based, Mesocricetus auratus
Settings: hamster, bhk-21

| Compound | LC100 [ng/mL] |
| --- | --- |
| CC(=O)O[C@]12CO[C@@H]3C=C(C)CC[C@]3(C)[C@@]1(C)C[C@@H](O)C2 | 1000 |
| CC1=C[C@H]2OC[C@]3(O)C[C@H](O)C[C@]3(C)[C@@]2(C)CC1 | 1000 |
